{"source": "patent US5536497A", "about": "“Fimbrial polypeptides useful in the prevention of periodontitis” (priority 1992, dated 1996)", "molecules": {"B1": {"name": "Trypsin, bovine pancreas type XIII-TPCK: trypsin from bovine pancreas, type XIII, TPCK treated (protein, UniProt P00760 24-246, looked up)", "Serine protease 1": "IVGGYTCGANTVPYQVSLNSGYHFCGGSLINSQWVVSAAHCYKSGIQVRLGEDNINVVEGNEQFISASKSIVHPSYNSNTLNNDIMLIKLKSAASLNSRVASISLPTSCASAGTQCLISGWGNTKSSGTSYPDVLKCLKAPILSDSSCKSAYPGQITSNMFCAGYLEGGKDSCQGDSGGPVVCSGKLQGIVSWGSGCAQKNKPGVYTKVCNYVSWIKQTIASN", "modifications": "TPCK treated"}}, "test_system": "P. gingivalis 2561 binding to sHAP beads", "assay": "microbe, parasite or virus in culture", "assay_type": "cell-based, Porphyromonas gingivalis", "key": {"[1]": {"settings": "Table 2, amount 0.1 mg, minus = enhancement of binding"}}, "note": "Like-named read-outs stand apart in the source and are kept apart here. Square brackets hold non-standard residues; d marks the D form. Peptide text beside a SMILES is read from it. * marks the point of attachment. Sta = CC(C)C[C@H](N)[C@@H](O)CC(=O)O; Isovaleryl = CC(C)CC(=O)*", "data": [{"molecule": "O=C[C@H](O)[C@@H](O)[C@H](O)[C@H](O)CO", "note": "[Glucose]", "values": [{"measurement": "Inhibition (%)", "setting": "[1]", "result": -10, "unit": "%"}]}, {"molecule": "O=C(O)CN(CCN(CC(=O)O)CC(=O)O)CC(=O)O", "note": "[EDTA]", "values": [{"measurement": "Inhibition (%)", "result": 24}]}, {"molecule": "N[C@H]1C(O)O[C@H](CO)[C@@H](O)[C@@H]1O", "note": "(some centres unmarked) [Glucosamine]", "values": [{"measurement": "Inhibition (%)", "setting": "[1]", "result": 0, "unit": "%"}]}, {"molecule": "N[C@H]1C(O)O[C@H](CO)[C@H](O)[C@@H]1O", "note": "(some centres unmarked) [Galactosamine]", "values": [{"measurement": "Inhibition (%)", "setting": "[1]", "result": 8, "unit": "%"}]}, {"molecule": "poly-2,8-N-acetyl neuraminic acid", "values": [{"measurement": "Inhibition (%)", "setting": "[1]", "result": 13, "unit": "%"}]}, {"molecule": "CC(=O)N[C@H]1C(O)O[C@H](CO)[C@@H](O)[C@@H]1O", "note": "(some centres unmarked) [N-Acetylglucosamine]", "values": [{"measurement": "Inhibition (%)", "setting": "[1]", "result": -15, "unit": "%"}]}, {"molecule": "CC(C)CC(=O)N[C@H](C(=O)N[C@H](C(=O)N[C@@H](CC(C)C)[C@@H](O)CC(=O)N[C@@H](C)C(=O)N[C@@H](CC(C)C)[C@@H](O)CC(=O)O)C(C)C)C(C)C", "note": "[Pepstatin] (Isovaleryl-VV[Sta]A[Sta]-OH)", "values": [{"measurement": "inhibition at 1 µM", "setting": "Porphyromonas gingivalis", "result": -10, "unit": "%"}]}, {"molecule": "OC[C@H]1O[C@H](O[C@H]2[C@H](O)[C@@H](O)[C@H](O)O[C@@H]2CO)[C@H](O)[C@@H](O)[C@@H]1O", "note": "[Maltose]", "values": [{"measurement": "Inhibition (%)", "setting": "[1]", "result": -8, "unit": "%"}]}, {"molecule": "O=C[C@H](O)[C@@H](O)[C@@H](O)[C@H](O)C(=O)O", "note": "[D-Galacturonic acid]", "values": [{"measurement": "Inhibition (%)", "setting": "[1]", "result": 21, "unit": "%"}]}, {"molecule": "CC(=O)N[C@@H](CC(C)C)C(=O)N[C@@H](CC(C)C)C(=O)N[C@H](C=O)CCCNC(=N)N", "note": "[Leupeptin]", "values": [{"measurement": "inhibition at 2 µM", "setting": "Porphyromonas gingivalis", "result": 19, "unit": "%"}]}, {"molecule": "N-Acetyl neuramin-lactose", "values": [{"measurement": "Inhibition (%)", "setting": "[1]", "result": 2, "unit": "%"}]}, {"molecule": "N=C(N)NCCC[C@H](N)C(=O)O", "note": "[L-Arginine]", "values": [{"measurement": "Inhibition (%)", "setting": "[1]", "result": 0, "unit": "%"}]}, {"molecule": "NCCCC[C@H](N)C(=O)O", "note": "[L-Lysine]", "values": [{"measurement": "Inhibition (%)", "setting": "[1]", "result": 5, "unit": "%"}]}, {"molecule": "CC(=O)N[C@H]1[C@H]([C@H](O)[C@H](O)CO)OC(O)(C(=O)O)C[C@@H]1O", "note": "(some centres unmarked) [Sialic acid (N-acetyl neuraminic acid), N-acetyl neuraminic acid]", "values": [{"measurement": "Inhibition (%)", "setting": "[1]", "result": 28, "unit": "%"}]}, {"molecule": "OC[C@H]1O[C@@H](O[C@H]2[C@H](O)[C@@H](O)C(O)O[C@@H]2CO)[C@H](O)[C@@H](O)[C@H]1O", "note": "(some centres unmarked) [Lactose]", "values": [{"measurement": "Inhibition (%)", "setting": "[1]", "result": -1, "unit": "%"}]}, {"molecule": "Poly-L-lysine", "values": [{"measurement": "Inhibition (%)", "setting": "Table 2, amount 0.25 mg", "result": 41, "unit": "%"}]}, {"molecule": "O=C[C@@H](O)[C@@H](O)[C@H](O)[C@H](O)CO", "note": "[Mannose]", "values": [{"measurement": "Inhibition (%)", "setting": "[1]", "result": -15, "unit": "%"}]}, {"molecule": "O=C[C@H](O)[C@@H](O)[C@@H](O)[C@H](O)CO", "note": "[Galactose]", "values": [{"measurement": "Inhibition (%)", "setting": "[1]", "result": -7, "unit": "%"}]}, {"molecule": "C[C@H](O)[C@@H](O)[C@@H](O)[C@H](O)C=O", "note": "[Fucose]", "values": [{"measurement": "Inhibition (%)", "setting": "[1]", "result": 1, "unit": "%"}]}, {"molecule": "O=C[C@H](O)[C@@H](O)[C@H](O)[C@H](O)C(=O)O", "note": "[D-Glucuronic acid]", "values": [{"measurement": "Inhibition (%)", "setting": "[1]", "result": 33, "unit": "%"}]}, {"molecule": "c1cnc2c(c1)ccc1cccnc12", "note": "[1,10-Phenanthroline]", "values": [{"measurement": "inhibition at 1000 µM", "setting": "Porphyromonas gingivalis", "result": -8, "unit": "%"}]}, {"molecule": "O=S(=O)(F)Cc1ccccc1", "note": "[Phenylmethylsulfonyl fluoride]", "values": [{"measurement": "Inhibition (%)", "setting": "Table 2, conc. 2 mM", "result": 13, "unit": "%"}]}, {"molecule": "CC(=O)N[C@H]1C(O)O[C@H](CO)[C@H](O)[C@@H]1O", "note": "(some centres unmarked) [N-Acetylgalactosamine]", "values": [{"measurement": "Inhibition (%)", "setting": "[1]", "result": -5, "unit": "%"}]}, {"molecule": "Defatted BSA: defatted BSA, agent tested in Table 2", "values": [{"measurement": "Inhibition (%)", "setting": "Table 2, amount l mg", "result": 43, "unit": "%"}]}, {"molecule": "B1", "values": [{"measurement": "Inhibition (%)", "setting": "Table 2, amount 100 U", "result": 53, "unit": "%"}, {"measurement": "Reduction of P. gingivalis binding after pretreatment of sHAP beads", "setting": "sHAP beads pretreated with enzyme prior to being mixed with P. gingivalis cells", "result": "approximately 50%"}]}]}
